Data set [1] addresses T1, rabbit reticulocyte 15-LO (Oryctolagus cuniculus, UniProt P12530).
T1 construct: Fifteen-lipoxygenase was obtained from phenylhydrazine-treated rabbits and purified per the method of Rapoport; from tissue; host or cells: reticulocytes of phenylhydrazine-treated rabbits
T1 sequence (P12530 1-663): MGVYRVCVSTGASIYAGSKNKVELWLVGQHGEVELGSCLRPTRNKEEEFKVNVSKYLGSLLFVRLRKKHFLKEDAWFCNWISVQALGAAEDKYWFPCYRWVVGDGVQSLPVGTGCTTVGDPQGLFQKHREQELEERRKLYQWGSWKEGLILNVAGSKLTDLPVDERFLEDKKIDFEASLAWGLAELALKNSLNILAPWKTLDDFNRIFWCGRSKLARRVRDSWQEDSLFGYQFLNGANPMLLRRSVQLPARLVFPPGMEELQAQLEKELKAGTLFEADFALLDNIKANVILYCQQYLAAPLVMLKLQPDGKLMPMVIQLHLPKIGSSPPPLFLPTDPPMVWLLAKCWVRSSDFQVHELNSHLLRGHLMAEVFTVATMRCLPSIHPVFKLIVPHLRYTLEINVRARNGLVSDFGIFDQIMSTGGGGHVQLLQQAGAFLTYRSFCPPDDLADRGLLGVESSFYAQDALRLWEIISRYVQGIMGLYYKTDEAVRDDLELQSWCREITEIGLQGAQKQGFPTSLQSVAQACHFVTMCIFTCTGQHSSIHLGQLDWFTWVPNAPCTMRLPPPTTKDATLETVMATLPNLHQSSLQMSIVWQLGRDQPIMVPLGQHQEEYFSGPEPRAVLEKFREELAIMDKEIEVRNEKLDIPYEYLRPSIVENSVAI
In words: Rabbit Reticulocyte 15-LO Assay (h15LO). The note with it: Table 2; for IC50: 2U rabbit reticulocyte 15-LO, 174 μM linoleic acid, 15 minutes at 4° C. In kind it is biochemical. The method in brief: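 Linoleic acid oxidation to 13-HPODE measured at 4° C. over 15 minutes, using 174 μM substrate and 2U enzyme purified from phenylhydrazine-treated rabbits in PBS/0.2% Na cholate. Product peak areas calibrated with authentic 13-HODE; inhibition expressed versus maximal reaction.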

From patent US6528528B2 (Warner-Lambert Company, priority 1997, dated 2003) come the findings set out here.

For orientation: melting point means the temperature, or range, at which the solid turns liquid. The IC50 is the point on the concentration scale where inhibition reaches its midpoint. The low end stands for greater potency, the high end for weaker potency.

For the compound `COc1ccc(C(=O)Nc2ccc(Cl)cc2)cc1NC(=S)Nc1cc(Cl)cc(Cl)c1` [Example 92, N-(4-Chlorophenyl)-3-[3-(3,5-dichlorophenyl)-thioureido]-4-methoxy-benzamide], the melting point is 180 to 185 °C. In data set [1], this compound gave an IC50 of 17 nM.
The corresponding values for `COc1ccc(C(=O)Nc2ccccc2)cc1NC(=S)Nc1ccc(N(C)C)cc1` [Example 93, 3-[3-(4-Dimethylaminophenyl)-thioureido]-4-methoxy-N-phenyl-benzamide] are 179 to 180 °C and 82 nM.
The matching figures for `COc1ccc(C(=O)Nc2ccc(C)cc2)cc1NC(=S)Nc1cc(Cl)cc(Cl)c1` [Example 94, 3-[3-(3,5-Dichlorophenyl)-thioureido]-4-methoxy-N-p-tolyl-benzamide]: 178 to 180 °C and 42 nM.
The matching figures for `COc1ccc(C(=O)Nc2ccccc2)cc1NC(=S)Nc1cccc(C)c1` [Example 95, 4-Methoxy-N-phenyl-3-(3-m-tolyl-thioureido)-benzamide]: 168 to 171 °C and 11 nM.
Turning to `O=C(Nc1ccccc1)c1ccc(F)c(NC(=S)Nc2cc(Cl)cc(Cl)c2)c1` [Example 96, 3-[3-(3,5-Dichlorophenyl)-thioureido]-4-fluoro-N-phenyl-benzamide], the melting point was 173 to 175 °C. In addition, it took 46 nM to reach half-maximal inhibition in data set [1] (IC50).
The matching figures for `COc1ccc(C(=O)Nc2ccc(Cl)c(Cl)c2)cc1NC(=S)Nc1cc(Cl)cc(Cl)c1` [Example 97, N-(3,4-Dichlorophenyl)-3-[3-(3,5-dichlorophenyl)-thioureido]-4-methoxy-benzamide]: 189 to 191 °C and 19 nM.
Turning to `COc1ccc(C(=O)Nc2ccccc2)cc1NC(=S)Nc1ccccc1C` [Example 98, 4-Methoxy-N-phenyl-3-(3-o-tolyl-thioureido)-benzamide], the melting point is 172 to 174 °C. This compound also showed an IC50 in data set [1] of 1000 nM.
The corresponding values for `COc1ccc(C(=O)Nc2ccccc2)cc1NC(=S)Nc1cc(C)cc(C)c1` [Example 99, 3-[3-(3,5-Dimethylphenyl)-thioureido]-4-methoxy-N-phenyl-benzamide] are 203 to 205 °C and 11 nM.
The corresponding values for `COc1ccc(C(=O)Nc2ccc(C)c(C)c2)cc1NC(=S)Nc1cccc(C)c1` [Example 102, N-(3,4-Dimethylphenyl)-4-methoxy-3-(3-m-tolyl-thioureido)-benzamide] are 155 to 160 °C and 170 nM.
The corresponding values for `COc1ccc(C(=O)Nc2ccc(C)c(Cl)c2)cc1NC(=S)Nc1cc(Cl)cc(Cl)c1` [Example 104, N-(3-Chloro-4-methylphenyl)-3-[3-(3,5-dichlorophenyl)-thioureido]-4-methoxy-benzamide] are 195 to 196 °C and 13 nM.
Compound `COc1ccc(C(=O)Nc2ccc(Cl)c(Cl)c2)cc1NC(=S)Nc1ccc(S(N)(=O)=O)cc1` [Example 105, N-(3,4-Dichlorophenyl)-4-methoxy-3-[3-(4-sulfamoyl-phenyl)-thioureido]-benzamide] had a melting point of 190 to 193 °C. Also, inhibition in data set [1] was half-maximal at 14 nM (IC50).
Take `CSc1ccc(C(=O)Nc2ccccc2)cc1NC(=S)Nc1cc(Cl)cc(Cl)c1` [Example 106, 3-[3-(3,5-Dichlorophenyl)-thioureido]-4-methylsulfanyl-N-phenyl-benzamide]: the melting point was in the range of 172 to 175 °C. Further, in data set [1], the IC50 is 11 nM.
The corresponding values for `COc1ccc(C(=O)Nc2ccc(F)c(F)c2)cc1NC(=S)Nc1cc(Cl)cc(Cl)c1` [Example 107, 3-[3-(3,5-Dichlorophenyl)-thioureido]-N-(3,4-difluoro-phenyl)-4-methoxy-benzamide] are 180 to 183 °C and 9 nM.
The corresponding values for `COc1ccc(C(=O)Nc2cccc(Cl)c2)cc1NC(=S)Nc1ccc(F)cc1` [Example 108, N-(3-Chlorophenyl)-3-[3-(4-fluorophenyl)-thioureido]-4-methoxy-benzamide] are 184 to 185 °C and 34 nM.
`COc1ccc(S(=O)(=O)Nc2ccccc2)cc1NC(=S)Nc1cc(Cl)cc(Cl)c1` [Example 109, 3-[3-(3,5-Dichlorophenyl)-thioureido]-4-methoxy-N-phenyl-benzenesulfonamide] showed a melting point of 163 to 165 °C. Further, the inhibition at 10 µM in data set [1] (0.25 h, @ 10 μM, read-out: h15LO % @ 10 μM) amounted to 26%.
Take `CCc1ccc(C(=O)Nc2ccccc2)cc1NC(=S)Nc1cccc(C(F)(F)F)c1` [Example 110, 4-Ethyl-N-phenyl-3-[3-(3-trifluoromethylphenyl)-thioureido]-benzamide]: the melting point lay in the range of 166 to 167 °C. Further, the IC50 in data set [1] came to 290 nM.
The matching figures for `CCc1ccc(C(=O)Nc2ccc(F)c(F)c2)cc1NC(=S)Nc1cccc(C(F)(F)F)c1` [Example 111, 4-Ethyl-N-(3,4-difluorophenyl)-3-[3-(3-trifluoromethyl-phenyl)-thioureido]-benzamide]: 169 to 170 °C and 79 nM.
The corresponding values for `COc1ccc(C(=O)Nc2cccnc2)cc1NC(=S)Nc1cccc(C(=O)O)c1` [Example 112, 3-{3-[2-Methoxy-5-(pyridin-3-ylcarbamoyl)-phenyl]-thioureido}-benzoic acid] are 191 to 192 °C and 26 nM.
The corresponding values for `COc1ccc(C(=O)Nc2ccccc2)cc1NC(=S)Nc1cccc(C(=O)O)c1` [Example 113, 3-[3-(2-Methoxy-5-phenylcarbamoyl-phenyl)-thioureido]-benzoic Acid] are 196 to 197 °C and 52 nM.
`O=C(Nc1ccc(F)c(NC(=S)Nc2cccc(C(F)(F)F)c2)c1)c1ccc(Cl)c(Cl)c1` [Example 114, 3,4-Dichloro-N-{4-fluoro-3-[3-(3-trifluoromethylphenyl)-thioureido]-phenyl}-benzamide] displayed a melting point of 172 to 174 °C. In data set [1], this compound showed an IC50 of 120 nM.
The matching figures for `COc1ccc(NC(=O)c2ccc(Cl)c(Cl)c2)cc1NC(=S)Nc1cc(Cl)cc(Cl)c1` [Example 115, 3,4-Dichloro-N-{3-[3-(3,5-dichlorophenyl)-thioureido]-4-methoxyphenyl}-benzamide]: 183 to 186 °C and 44 nM.
The compound `COc1ccc(C(=O)Nc2ccccc2)cc1NS(=O)(=O)c1cc(Cl)cc(Cl)c1` [Example 118, 3-(3,5-Dichloro-benzenesulfonylamino)-4-methoxy-N-phenyl-benzamide] displayed a melting point of 222 to 228 °C. Further, in data set [1], half-maximal inhibition (IC50) was put at 49 nM.
In turn, `COc1ccc(C(=O)Nc2ccccc2)cc1NS(=O)(=O)c1ccccc1` [Example 120, 3-Benzenesulfonylamino-4-methoxy-N-phenyl-benzamide] had a melting point of 190 to 194 °C. Besides, the IC50 in data set [1] was found to be 40 nM.
The corresponding values for `COc1ccc(S(=O)(=O)Nc2cc(C(=O)Nc3ccccc3)ccc2OC)cc1` [Example 121, 3-(4-Methoxy-benzenesulfonylamino)-4-methoxy-N-phenyl-benzamide] are 184 to 186 °C and 25 nM.
Consider `COc1ccc(C(=O)Nc2ccccc2)cc1NS(=O)(=O)c1cccc([N+](=O)[O-])c1` [Example 122, 3-(3-Nitro-benzenesulfonylamino)-4-methoxy-N-phenyl-benzamide], for which the melting point lay within 208 to 210 °C. For the same compound, in data set [1], the IC50 amounted to 187 nM.
The matching figures for `COc1ccc(C(=O)Nc2ccccc2)cc1NS(=O)(=O)c1cccc(Cl)c1` [Example 123, 3-(3-Chloro-benzenesulfonylamino)-4-methoxy-N-phenyl-benzamide]: 197 to 199 °C and 31 nM.
The matching figures for `COc1ccc(C(=O)Nc2ccccc2)cc1NS(=O)(=O)c1ccc(C)cc1` [Example 124, 3-(4-Methyl-benzenesulfonylamino)-4-methoxy-N-phenyl-benzamide]: 200 to 202 °C and 48 nM.
The matching figures for `COc1ccc(C(=O)Nc2ccccc2)cc1NS(=O)(=O)c1ccc(F)cc1` [Example 125, 3-(4-Fluoro-benzenesulfonylamino)-4-methoxy-N-phenyl-benzamide]: 209 to 211 °C and 28 nM.
Compound `COc1ccc(C(=O)Nc2ccccc2)cc1NS(=O)(=O)c1cc(Br)c(Br)s1` [Example 126, 3-(4,5-Dibromothiophene-2-sulfonylamino)-4-methoxy-N-phenyl-benzamide] had a melting point of 205 to 210 °C. In data set [1], this compound came in with an IC50 of 48 nM.
Compound `COc1ccc(C(=O)Nc2ccccc2)cc1NS(=O)(=O)c1ccccc1Cl` [Example 127, 3-(2-Chlorobenzenesulfonylamino)-4-methoxy-N-phenyl-benzamide] registered a melting point of 107 to 109 °C. For the same compound, the IC50 in data set [1] was found to be 167 nM.
